Data from US8604059B2, “Thioxanthene derivatives for the treatment of infectious diseases” (BKG Pharma APS, priority 2009, dated 2013).
In brackets after ≈: the same amount, converted by molar mass. Where two headings read alike, the source gives them in different places. One block for each molecule: values may come before it.

Tests used:
strain IIIB of HIV-1 = assay: Inhibition of HIV-1 replication in MT4 cells, MTT assay; type: cell-based; details: Human immunodeficiency virus 1, IIIB
Protocol: The enhancing effect of compound 3 on anti-viral agents was studied by checkerboard combination studies exposing HIV infected cells to 0-3 μM anti-viral agent in the absence or presence of compound 3 in concentrations from 0 to 6 μM. Each experiment was repeated in tripleduplicate. MIC values represent the mean values of two separate experiments.
The HIV-1 strain HTLV-IIIB were propagated in H9 cells at 37° C., 5% CO2 using RPMI 1640 with 10% heat-inactivated foetal calf serum (FCS) and antibiotics (growth medium). Culture supernatant was filtered ([…]), aliquotted, and stored at −80° C. until use. The HIV-1 strain was obtained from NIH AIDS Research and Reference Program.
(§1) Compounds were examined for possible antiviral activity against strain IIIB of HIV-1 using MT4 cells as target cells. MT4 cells were incubated with virus (0.005 MOI) and growth medium containing the test dilutions of compound(s) for six days in parallel with virus-infected and uninfected control cultures without compound added. Expression of HIV in the cultures was indirectly quantified using the MTT assay as previously described. Compounds mediating less than 30% reduction of HIV expression were considered without biological activity. Compounds were tested in parallel for cytotoxic effect in uninfected MT4 cultures containing the test dilutions of compound as described above. Cultures for test of both antiviral activity and cytotoxic effect were set up in tripleduplicates, […] per culture in micro titre plates. A 30% inhibition of cell growth relative to control cultures was considered significant. The 50% inhibitory concentration was determined by interpolation from the plots of percent inhibition versus concentration of compound.
EC50 is defined as the effective concentration that inhibits 50% of viral production, 50% of viral infectivity, or 50% of the virus-induced cytopathic effect.

MT4 cells = assay: Cytotoxic effect in uninfected MT4 cultures; type: cell-based; details: read-out: CC50 A + C3 (1 μM); AZT in presence of compound 3 at 1 μM
Protocol: as §1
(§2) CC50 is defined as the inhibitory concentration that reduces cellular growth or viability of uninfected cells by 50%.

[1] = Cytotoxic effect in uninfected MT4 cultures; type: cell-based; details: human, uninfected MT4 cells; single agent; uninfected MT4
Protocol: as §1, §2

S. epidermidis = assay: MIC, microdilution broth, multiresistant clinical isolates (Table 1A); type: cell-based; details: Staphylococcus epidermidis; ten multiresistant clinical isolates; read-out: Median MIC S. epidermidis
Protocol: (§3) Cell growth was tested using the Minimal Inhibitory Concentration (MIC) susceptibility tests by use of the microdilution broth method in accordance to the NCCLS Guidelines (NCCLS Guidelines, Methods for Dilution Antimicrobial Susceptibility Tests for Bacteria That Grow Aerobically; Approved Standard, Sixth Edition, Volume 23; Number 2). The minimum inhibitory concentration (MIC), is defined as the lowest concentration of drug which inhibits growth of the test organism, in the sense that no visible growth is detected (total inhibition of growth). In example 2, MIC of the compounds used on fungal microorgansims was determined from the IC90 measurements according to NCCLS Guidelines.
(§4) A log phase culture of bacteria was diluted with fresh pre-warmed Mueller-Hinton medium and adjusted to a defined OD at 600 nm in order to give a final concentration of 1×10^4-5 bacteria/ml medium. The bacterial culture was transferred to microtiter-plates and culture was added to each well. […] Trays were incubated at 37° C. by shaking in a robot analyzer, PowerWavex, software KC^4′ Kebo. Lab, Copenhagen, for 16 h and optical densities were measured at 600 nm during the incubation time in order to record growth curves. Wells containing bacterial culture without drug were used as controls to ensure correct inoculum size and bacterial growth during the incubation. Cultures were tested in order to detect contaminations. Each experiment was repeated in triplicate.
(§5) Ten strains in each test group.

E. coli = assay: as above; type: cell-based; details: Escherichia coli; ten multiresistant clinical isolates; read-out: Median MIC E. coli
Protocol: as §3, §4, §5

E. faecium = assay: as above; type: cell-based; details: Enterococcus faecium; ten multiresistant clinical isolates; read-out: Median MIC E. faecium
Protocol: as §3, §4, §5

S. aureus = assay: as above; type: cell-based; details: Staphylococcus aureus; ten multiresistant clinical isolates; read-out: Median MIC S. aureus
Protocol: as §3, §4, §5

E. faecalis = assay: as above; type: cell-based; details: Enterococcus faecalis; ten multiresistant clinical isolates; read-out: Median MIC E. faecalis
Protocol: as §3, §4, §5

[2] = tested on: S. aureus MRSA clinical isolates; assay: FIC index, synergy with antibiotics (Table 4a); type: cell-based, Staphylococcus aureus; details: with Dicloxacillin; 8 MRSA; mean; compound at ¼ of MIC
Protocol: (§6) The effect of the compounds was tested according to the methods described in WO2005/105145. In brief, cell growth was tested using the MIC susceptibility tests by use of the microdilution broth method in accordance to the NCCLS Guidelines (NCCLS Guidelines, Methods for Dilution Antimicrobial Susceptibility Tests for Bacteria That Grow Aerobically; Approved Standard, Sixth Edition, Volume 23; Number 2).
(§7) The Fractional Inhibitory Concentration (FIC) index were calculated for each compound as described in WO2005/105145. Synergy was defined for Fractional Inhibitory Concentration (FIC) indices less than 0.5
Staphylococcus aureus: 8 (MRSA) in vivo-selected clinical isolates. Resistant to methicillin and beta-lactam antibiotics. Susceptible to teicoplanin chloramphenicol, fosfomycin, netilmicin and vancomycin.

[3] = tested on: E. coli MDR clinical isolates; assay: FIC index, synergy with antibiotics (Table 4a); type: cell-based; details: 8 MDR E. coli, mean, compound at ¼ of MIC
Protocol: as §6, §7
E. coli: 8 in vivo-selected multidrug resistant clinical isolates of E. coli. Resistant to tetracycline, beta-lactams, fluoroquinolones, chloramphenicol and aminoglycoside

[4] = tested on: Multiresistant clinical isolates E. coli; assay: Maximal reversal of resistance and synergistic effect (Table 4c); type: cell-based; details: E. coli multiresistant isolates
Protocol: The maximal obtained reversal of resistance and synergistic effect was tested as previously described.
Strains: Multiresistant clinical isolates E. coli, Ten strains in each group.

[5] = tested on: E. faecalis MDR/VRE clinical isolates; assay: FIC index, synergy with antibiotics (Table 4a); type: cell-based, Enterococcus faecalis; details: 8 MDR/VRE E. faecalis, mean, compound at ¼ of MIC
Protocol: as §6, §7
Enterococcus faecalis: 8 multidrug resistant in vivo-selected clinical isolates. […] Expressing change in the cell wall precursor target as a major resistance mechanism (VanA gene expression).

Candida species = assay: MIC on clinical isolates of Candida species, broth microdilution NCCLS M27-A (Table 3); type: cell-based; details: Candida species incl. fluconazole resistant; MIC = 90% growth inhibition
Protocol: The antibacterial effect of demethylated/dealkylated phenothiazine or thioxanthene compounds were studied by growth inhibition studies exposing cells to 0-32 μg/ml of drug. Each experiment was repeated in triplicate. MIC values represent the mean values of two separate triplicate experiments.
4 clinical isolates of Candida species (including 3 fluconazole resistant isolates) were subcultured for 24 h on Sabouraud glucose agar before susceptibility testing. Broth microdilution tests were performed according to NCCLS document M27-A (Ref: National Commitee for Clinical Laboratory Standards. (1997). Reference Method for Broth Dilution Antifungal Susceptibility Testing of Yeasts: Approved Standard M27-A. NCCLS, Wayne, Pa.). Microtitre plates were read spectrophotometrically at 530 nm, after mixing the wells by pipetting to resuspend yeast sediments. In this experiment, the MIC was defined as the lowest drug dilution resulting in 90% growth inhibition.

Candida albicans = assay: Synergy with fluconazole, broth microdilution NCCLS M27-A (Table 10); type: cell-based
Protocol: The isolates were subcultured for 24 h on Sabouraud glucose agar before susceptibility testing. Broth microdilution tests were performed according to NCCLS document M27-A (Ref: National Commitee for Clinical Laboratory Standards. (1997). Reference Method for Broth Dilution Antifungal Susceptibility Testing of Yeasts: Approved Standard M27-A. NCCLS, Wayne, Pa.) Microtitre plates were read spectrophotometrically at 530 nm, after mixing the wells by pipetting to resuspend yeast sediments. […] The Fractional Inhibitory Concentration (FIC) was calculated for the anti-infective agent alone and in combination with compound 3 and 4 (see table 4) as described above. Synergy was defined as a FIC index of <0.5.

Enterococci sp. = assay: MIC on multiresistant and susceptible clinical isolates of Enterococci (Table 2); type: cell-based, Enterococcus faecalis and Enterococcus faecium; details: 8 multiresistant (VanA, VanB, HLAR, BLR,CR) and 8 susceptible isolates
Protocol: as §3
A log phase culture of bacteria was diluted with fresh pre-warmed Mueller-Hinton medium and adjusted to a defined OD at 600 nm in order to give a final concentration of 1×10^4-5 bacteria/ml medium. The bacterial culture was transferred to microtiter-plates and culture was added to each well. Drug was added to the bacterial culture in the wells as two-fold dilution series of drug in order to give final concentrations ranging from 0.03 to 128 μg/ml. Trays were incubated at 37° C. by shaking in a robot analyzer, PowerWavex, software KC^4′ Kebo. Lab, Copenhagen, for 16 h and optical densities were measured at 600 nm during the incubation time in order to record growth curves. […]

Streptococci = assay: MIC on multiresistant and susceptible clinical isolates (Table 1b); type: cell-based; details: 8 multiresistant and 8 susceptible isolates
Protocol: as §3
(§8) A log phase culture of bacteria was diluted with fresh pre-warmed Mueller-Hinton medium and adjusted to a defined OD at 600 nm in order to give a final concentration of 1×10^4-5 bacteria/ml medium. The bacterial culture was transferred to microtiter-plates and culture was added to each well. Drug was added to the bacterial culture in the wells as two-fold dilution series of drug in order to give final concentrations ranging from 0.03 to 128 μg/ml. Trays were incubated at 37° C. by shaking in a robot analyzer, PowerWavex, software KC^4′ Kebo. Lab, Copenhagen, for 16 h and optical densities were measured at 600 nm during the incubation time in order to record growth curves. Wells containing bacterial culture without drug were used as controls to ensure correct inoculum size and bacterial growth during the incubation. Cultures were tested in order to detect contaminations. Each experiment was repeated in triplicate. MIC values represent the mean values of two separate triplicate experiments. Intra- and interassay variation was <5%.
(§9) Clinically relevant human bacterial isolates of Staphylococci, Streptococci, Micrococci and Gram negative species was cultured and assayed as described above for susceptibility towards the compounds listed in table 1b.

Gram negative sp. = assay: as above; type: cell-based; details: 8 multiresistant and 8 susceptible isolates
Protocol: as §3, §8, §9

[6] = tested on: Staphylococci, Micrococci. Including MRSA; assay: as above; type: cell-based; details: Micrococci incl. MRSA, 8 multiresistant and 8 susceptible isolates
Protocol: as §3, §8, §9

Structure (SMILES): Cc1cn([C@H]2C[C@H](N=[N+]=[N-])[C@@H](CO)O2)c(=O)[nH]c1=O [AZT, 3′-Azido-3′-deoxythymidine]
EC50 (strain IIIB of HIV-1; 144 h, single agent, MT4 cells, six days, read-out: EC50): 50 nM
EC50 (strain IIIB of HIV-1; MT4, read-out: EC50 A + C3 (1 μM), AZT in presence of compound 3 at 1 μM): 10 nM
CC50 (MT4 cells): > 3000 nM
CC50 at 6 days [1]: > 3000 nM

MIC (S. epidermidis): 8 µg/mL (≈ 20 µM)
MIC (E. coli): 16 µg/mL (≈ 39.9 µM)
MIC (E. faecium): 1 µg/mL (≈ 2.49 µM)
MIC (S. aureus): 8 µg/mL (≈ 20 µM)
MIC (E. faecalis): 1 µg/mL (≈ 2.49 µM)
Structure (SMILES): OCCN1CCN(CC/C=C2\c3ccccc3Sc3ccc(Cl)cc32)CC1 [Compound 2, trans-clopentixol]
FIC index [2]: 0.37
FIC index ([3]; with Ampicillin): 0.47
FIC index ([3]; with Ciprofloxacin): 0.44
FIC index ([3]; with Gentamycin): 0.44
FIC index ([3]; with Tetracycline): 0.47
Maximal reversal of resistance: concentration of compound [4]: 2.0 µg/mL
FIC index ([5]; with Ciprofloxacin): 0.47
FIC index ([5]; with Dicloxacillin): 0.47

Structure (SMILES): OCCN1CCC(CC/C=C2\c3ccccc3Sc3ccc(Cl)cc32)CC1 [Compound 4]
MIC Mean (range) (Candida species): 1.5 (0.125-2.0) μ/ml
MIC (Candida albicans; Candida albicans, compound alone, read-out: MIC Compound): 1.5 µg/mL
FIC index (Candida albicans; in combination with fluconazole): 0.39
FIC index [2]: 0.34
FIC index ([3]; with Ampicillin): 0.44
FIC index ([3]; with Ciprofloxacin): 0.47
FIC index ([3]; with Gentamycin): 0.47
FIC index ([3]; with Tetracycline): 0.44
MIC Mean (range) (Enterococci sp.): 0.5 (0.125-1.0) μ/ml
FIC index ([5]; with Ciprofloxacin): 0.34
FIC index ([5]; with Dicloxacillin): 0.34
MIC Mean (Streptococci): 1 µg/mL (≈ 2.5 µM)
MIC Mean (Gram negative sp.): 3 µg/mL (≈ 7.5 µM)
MIC Mean [6]: 1 µg/mL (≈ 2.5 µM)
